The record followed here is patent US20260028354A1, “TETRAHYDRONAPHTHALENE DERIVATIVES AS ESTROGEN RECEPTOR DEGRADERS” (REGENT OF THE UNIVERSITY OF MICHIGAN, priority 2022, published 2026).

Structures are written as SMILES. Where two headings read alike, the source gives them in different places.

One test relates to MCF-7 cells. The experiment in a line: CellTiter-Glo (CTG) cell proliferation assay in MCF-7 cells. The format is cell-based. To be noted: Homo sapiens, MCF7, 144 h, MCF-7 cell proliferation, Day 6. The source says:
(§1) CellTiter-Glo® (CTG) Assays in MCF-7 and T47D Cell Lines.
(§2) In vitro Assay: MCF-7 and T47D CTG assay

The next test has as its system T47D cells. In words: CellTiter-Glo (CTG) cell proliferation assay in T47D cells. The following applies: Homo sapiens, 144 h, Day 6. In kind it is cell-based.
Text: as §1, §2

For a further test, the target named is ER in MCF-7 cells (Homo sapiens (Human), UniProt P03372). The experiment in a line: In-cell Western (ICW) ER degradation assay in MCF-7 cells. The format is cell-based. The following applies: for DC50: MCF-7, ER degradation, read-out: MCF7 DC50.
ER in MCF-7 cells, sequence (P03372 whole entry): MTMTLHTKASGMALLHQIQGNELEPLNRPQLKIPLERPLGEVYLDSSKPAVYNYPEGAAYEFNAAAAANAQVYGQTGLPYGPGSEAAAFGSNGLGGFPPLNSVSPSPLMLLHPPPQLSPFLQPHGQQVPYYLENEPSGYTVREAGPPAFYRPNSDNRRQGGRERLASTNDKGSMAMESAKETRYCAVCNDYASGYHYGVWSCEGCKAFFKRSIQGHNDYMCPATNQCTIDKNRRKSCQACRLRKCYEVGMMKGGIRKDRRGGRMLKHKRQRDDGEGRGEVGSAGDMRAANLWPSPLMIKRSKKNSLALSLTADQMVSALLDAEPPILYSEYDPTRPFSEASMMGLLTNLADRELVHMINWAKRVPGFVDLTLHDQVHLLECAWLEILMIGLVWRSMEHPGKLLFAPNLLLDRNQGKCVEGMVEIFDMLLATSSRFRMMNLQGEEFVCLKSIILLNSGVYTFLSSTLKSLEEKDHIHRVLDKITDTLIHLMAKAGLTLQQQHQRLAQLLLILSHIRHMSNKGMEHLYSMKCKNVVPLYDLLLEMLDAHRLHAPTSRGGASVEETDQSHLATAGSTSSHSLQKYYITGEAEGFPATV
Another test addresses ERα_LBD (GST) (Homo sapiens (Human), UniProt P03372). The experiment in a line: IC50 measurements for binding to ERα_LBD (GST), LanthaScreen TR-FRET competitive binding. To be noted: ERα_LBD (GST) 4 nM, Fluormone ES2 Green tracer, 60 min; read-out: ERα HTRF IC50. An outline of the steps:
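Competitive TR-FRET displacement of Fluormone ES2 Green tracer (3 nM) from GST-tagged human ERα LBD (4 nM) with Tb anti-GST (2 nM), in nuclear receptor buffer K plus 5 mM DTT, 1% DMSO. 60 min at room temperature, dark; 520/495 nm ratio vs log[compound] fitted sigmoidally for IC50.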

In another test the target is ER in T47D cells (Homo sapiens (Human), UniProt P03372). In words: In-cell Western (ICW) ER degradation assay in T47D cells. In kind it is cell-based. To be noted: for DC50: ER degradation.
ER in T47D cells, sequence (P03372 whole entry): as above
The target in the next test is CRBN/DDB1 (Homo sapiens (Human), UniProt Q96SW2). In kind it is binding. The following applies: His tagged CRBN+DDB1, Cy5-labeled Thalidomide probe, one hour; read-out: CRBN HTRF IC50. As to the method: The binding potency was determined using HTRF assay technology (Perkin Elmer). Compounds were serially diluted in DMSO and […] volume was transferred to white 384-well plate.
CRBN/DDB1, sequence (Q96SW2 whole entry, species assumed): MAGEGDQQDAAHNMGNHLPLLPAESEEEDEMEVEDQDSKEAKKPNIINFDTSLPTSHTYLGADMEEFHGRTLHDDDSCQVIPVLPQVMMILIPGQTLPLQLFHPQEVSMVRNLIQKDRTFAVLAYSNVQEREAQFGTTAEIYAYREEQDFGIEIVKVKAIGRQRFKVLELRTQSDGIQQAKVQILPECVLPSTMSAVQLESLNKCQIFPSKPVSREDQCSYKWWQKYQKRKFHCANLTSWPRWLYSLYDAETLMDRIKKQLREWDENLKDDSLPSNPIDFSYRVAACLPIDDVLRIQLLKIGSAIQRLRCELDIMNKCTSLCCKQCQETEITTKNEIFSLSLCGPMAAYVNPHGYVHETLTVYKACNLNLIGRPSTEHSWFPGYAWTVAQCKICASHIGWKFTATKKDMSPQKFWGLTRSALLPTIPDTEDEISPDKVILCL
CRBN/DDB1, sequence (Q16531 whole entry partner, species assumed): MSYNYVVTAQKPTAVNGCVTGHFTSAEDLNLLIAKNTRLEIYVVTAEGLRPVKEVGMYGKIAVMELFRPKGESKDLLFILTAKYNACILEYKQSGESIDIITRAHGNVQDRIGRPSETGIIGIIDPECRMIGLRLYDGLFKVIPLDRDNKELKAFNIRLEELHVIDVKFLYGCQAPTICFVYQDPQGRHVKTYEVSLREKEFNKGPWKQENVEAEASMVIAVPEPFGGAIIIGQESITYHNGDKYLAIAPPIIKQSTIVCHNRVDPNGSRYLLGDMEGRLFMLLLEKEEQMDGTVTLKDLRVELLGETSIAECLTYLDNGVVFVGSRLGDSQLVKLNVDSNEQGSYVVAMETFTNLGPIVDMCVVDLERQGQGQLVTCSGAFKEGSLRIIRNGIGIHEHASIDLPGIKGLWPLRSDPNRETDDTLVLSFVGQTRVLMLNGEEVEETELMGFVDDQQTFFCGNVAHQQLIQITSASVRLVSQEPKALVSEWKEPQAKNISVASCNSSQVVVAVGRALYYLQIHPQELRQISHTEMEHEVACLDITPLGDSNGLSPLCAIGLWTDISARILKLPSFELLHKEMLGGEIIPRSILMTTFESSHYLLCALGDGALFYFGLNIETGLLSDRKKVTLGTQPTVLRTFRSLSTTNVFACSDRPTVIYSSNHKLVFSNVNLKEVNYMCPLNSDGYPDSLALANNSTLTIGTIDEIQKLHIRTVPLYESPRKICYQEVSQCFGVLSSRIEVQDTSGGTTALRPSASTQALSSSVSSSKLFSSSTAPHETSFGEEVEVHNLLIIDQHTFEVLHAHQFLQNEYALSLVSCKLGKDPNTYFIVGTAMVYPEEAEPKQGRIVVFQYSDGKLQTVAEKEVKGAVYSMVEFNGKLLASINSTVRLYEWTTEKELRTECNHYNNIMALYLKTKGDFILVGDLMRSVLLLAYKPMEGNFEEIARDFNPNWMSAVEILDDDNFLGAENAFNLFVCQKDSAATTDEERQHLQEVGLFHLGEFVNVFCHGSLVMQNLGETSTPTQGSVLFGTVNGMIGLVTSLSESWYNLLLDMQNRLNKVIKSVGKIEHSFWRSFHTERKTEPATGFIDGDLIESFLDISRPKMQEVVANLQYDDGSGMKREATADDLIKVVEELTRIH

Where [1] appears, read: MCF7, MCF-7, maximal ER degradation, 16 hrs treatment, read-out: MCF7 Dmax.
Setting [2] is: maximal ER degradation, 16 hrs treatment, read-out: T47D Dmax.
[3] abbreviates: MCF7, read-out: MCF7 Dmax, MCF-7, maximal ER degradation, 16 hrs treatment.
Setting [4] is: read-out: T47D Dmax, T47D, maximal ER degradation, 16 hrs treatment.

ERα_LBD (GST), sequence (P03372 311-547): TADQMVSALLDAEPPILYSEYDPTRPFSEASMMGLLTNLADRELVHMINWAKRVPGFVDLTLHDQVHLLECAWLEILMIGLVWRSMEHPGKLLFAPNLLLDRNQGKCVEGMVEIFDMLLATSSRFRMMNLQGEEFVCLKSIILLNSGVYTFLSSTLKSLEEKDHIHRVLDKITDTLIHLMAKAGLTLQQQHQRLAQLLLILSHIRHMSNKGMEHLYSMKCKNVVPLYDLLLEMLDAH

In the case of `COc1cc(N2CCC3(CC2)C[C@H](CN2CCN4c5ccc6c(c5OC[C@H]4C2)CN([C@H]2CCC(=O)NC2=O)C6=O)CO3)c(F)cc1[C@@H]1c2ccc(O)cc2CC[C@@H]1c1ccccc1` [Compound A174, (S)-3-((R)-7-(((R)-8-(2-fluoro-4-((1S,2S)-6-hydroxy-2-phenyl-1,2,3,4-tetrahydronaphthalen-1-yl)-5-methoxyphenyl)-1-oxa-8-azaspiro[4.5]decan-3-yl)methyl)-1-oxo-1,3,5,5a,6,7,8,9-octahydro-2H-pyrazino[1′,2′:4,5][1,4]oxazino[2,3-e]isoindol-2-yl)piperidine-2,6-dione], the half-inhibitory concentration (IC50) in the test on MCF-7 cells, in the test with T47D cells and at ERα_LBD (GST) was below 10 nM each time. The Dmax at ER in MCF-7 cells (setting [1]) and on ER in T47D cells (setting [2]) was above 75% in each case. In addition, the 50% degradation concentration (DC50) at ER in MCF-7 cells (16 hrs treatment) and on ER in T47D cells (16 hrs treatment) was below 1 nM throughout.
For the compound `COc1cc(N2CCC(CN3CCN4c5ccc6c(c5OCC4C3)CN([C@H]3CCC(=O)NC3=O)C6=O)CC2)c(F)cc1[C@@H]1c2ccc(O)cc2CC[C@@H]1c1ccccc1` (stereo in doubt) [Compound A35, (S)-3-((S)-7-((1-(2-fluoro-4-((1S,2S)-6-hydroxy-2-phenyl-1,2,3,4-tetrahydronaphthalen-1-yl)-5-methoxyphenyl)piperidin-4-yl)methyl)-1-oxo-1,3,5,5a,6,7,8,9-oCtahydro-2H-pyrazino[1′,2′: 4,5][1,4]oxazino[2,3-e]isoindol-2-yl)piperidine-2,6-dione], the IC50 with MCF-7 cells was 10 to 100 nM; with T47D cells, 10 to 100 nM; at ERα_LBD (GST), below 10 nM. For the same compound, the maximal degradation (Dmax) on ER in MCF-7 cells (setting [3]) and at ER in T47D cells (setting [2]) was above 75% in each case. For the same compound, the DC50 at ER in MCF-7 cells (16 hrs treatment) and on ER in T47D cells (16 hrs treatment) was below 1 nM each time.
Regarding `COc1cc(N2CCC3(CC2)C[C@@H](CN2CCN4c5cc6c(cc5OC[C@@H]4C2)C(=O)N([C@H]2CCC(=O)NC2=O)C6)CO3)ccc1[C@@H]1c2ccc(O)cc2CC[C@@H]1c1ccccc1` (single isomer, unassigned) [Compound A136], the half-maximal inhibitory concentration (IC50) with MCF-7 cells is below 10 nM; on CRBN/DDB1, 500 to 5000 nM; in the test with T47D cells, below 10 nM; on ERα_LBD (GST), below 10 nM. In addition, the Dmax at ER in MCF-7 cells (setting [1]) and at ER in T47D cells (setting [2]) was above 75% throughout. Moreover, the half-maximal degradation concentration (DC50) at ER in MCF-7 cells (16 hrs treatment) and on ER in T47D cells (16 hrs treatment) was below 1 nM in each case.
As to `COc1cc(N2CCC3(CC2)C[C@H](CN2CCN4c5cc6c(cc5OC[C@@H]4C2)C(=O)N([C@H]2CCC(=O)NC2=O)C6)CO3)c(F)cc1[C@@H]1c2ccc(O)cc2CC[C@@H]1c1ccccc1` [Compound A173, (S)-3-((S)-3-(((R)-8-(2-fluoro-4-((1S,2S)-6-hydroxy-2-phenyl-1,2,3,4-tetrahydronaphthalen-1-yl)-5-methoxyphenyl)-1-oxa-8-azaspiro[4.5]decan-3-yl)methyl)-8-oxo-1,2,3,4,4a,5,8,10-octahydro-9H-pyrazino[1′,2′:4,5][1,4]oxazino[2,3-f]isoindol-9-yl)piperidine-2,6-dione], the IC50 in the test on MCF-7 cells, in the test on T47D cells and at ERα_LBD (GST) was below 10 nM each time. In addition, the Dmax at ER in MCF-7 cells (setting [1]) and on ER in T47D cells (setting [2]) was above 75% in each case. The DC50 at ER in MCF-7 cells (16 hrs treatment) and at ER in T47D cells (16 hrs treatment) was below 1 nM throughout.
Take `O=C1CC[C@H](N2Cc3c(ccc4c3OC[C@H]3CN(CC5COC6(C5)CN(c5ccc([C@H]7c8ccc(O)cc8CC[C@H]7c7ccccc7)cc5)C6)CCN43)C2=O)C(=O)N1` (single isomer, unassigned) [Compound A41]: the IC50 in the test with MCF-7 cells was below 10 nM; on CRBN/DDB1, below 50 nM; in the test on T47D cells, below 10 nM; on ERα_LBD (GST) it was below 10 nM. In addition, the greatest degradation seen (Dmax) at ER in MCF-7 cells (setting [1]) and at ER in T47D cells (setting [2]) was above 75% throughout. For the same compound, the DC50 at ER in MCF-7 cells (16 hrs treatment) and on ER in T47D cells (16 hrs treatment) was below 1 nM throughout.
With `COc1cc(N2CCC3(CC2)C[C@H](CN2CCC4(CC2)COc2c4ccc4c2CN([C@H]2CCC(=O)NC2=O)C4=O)CO3)c(F)cc1[C@@H]1c2ccc(O)cc2CC[C@@H]1c1ccccc1` [Compound A176], the IC50 in the test with MCF-7 cells, with T47D cells and at ERα_LBD (GST) was below 10 nM in each case. For the same compound, the maximal degradation (Dmax) at ER in MCF-7 cells (setting [3]) and on ER in T47D cells (setting [4]) was above 75% in each case. The half-maximal degradation concentration (DC50) at ER in MCF-7 cells (16 hrs treatment) and on ER in T47D cells (16 hrs treatment) was below 1 nM throughout.
Turning to `COc1cc(N2CCC3(CC2)CC(CN2CCC(c4ccc(N[C@@H]5CCC(=O)NC5=O)cc4)CC2)C3)c(F)cc1[C@@H]1c2ccc(O)cc2CC[C@@H]1c1ccccc1` (single isomer, unassigned) [Compound A31], the results for the concentration for half-maximal inhibition (IC50) in the test on MCF-7 cells, with T47D cells and on ERα_LBD (GST) were 10 to 100 nM, above 100 nM and below 10 nM, respectively. In addition, the Dmax at ER in MCF-7 cells (setting [1]) was 50 to 75%; at ER in T47D cells (setting [2]) it was above 75%. Besides, the DC50 on ER in MCF-7 cells (16 hrs treatment) and at ER in T47D cells (16 hrs treatment) was below 1 nM in each case.
For the compound `COc1cc(N2CCC3(CC2)C[C@H](CN2CCC4(CC2)COc2cc5c(cc24)CN([C@H]2CCC(=O)NC2=O)C5=O)CO3)c(F)cc1[C@@H]1c2ccc(O)cc2CC[C@@H]1c1ccccc1` [Compound A175, (S)-3-(1′-(((R)-8-(2-fluoro-4-((1S,2S)-6-hydroxy-2-phenyl-1,2,3,4-tetrahydronaphthalen-1-yl)-5-methoxyphenyl)-1-oxa-8-azaspiro[4.5]decan-3-yl)methyl)-7-oxo-5,7-dihydro-2H,6H-spiro[furo[2,3-f]isoindole-3,4′-piperidin]-6-yl)piperidine-2,6-dione], the IC50 with MCF-7 cells, in the test on T47D cells and on ERα_LBD (GST) was below 10 nM in each case. Also, the greatest degradation seen (Dmax) on ER in MCF-7 cells (setting [3]) and at ER in T47D cells (setting [4]) was above 75% throughout. The DC50 on ER in MCF-7 cells (16 hrs treatment) and at ER in T47D cells (16 hrs treatment) was below 1 nM each time.
`O=C1CC[C@H](N2Cc3c(ccc4c3OC[C@H]3CN(C[C@H]5COC6(C5)CN(c5ccc([C@@H]7c8ccc(O)cc8CC[C@@H]7c7ccccc7)cc5)C6)CCN43)C2=O)C(=O)N1` (single isomer, unassigned) [Compound A68]: the half-inhibitory concentration (IC50) with MCF-7 cells was 10 to 100 nM; at CRBN/DDB1, below 50 nM; on ERα_LBD (GST), below 10 nM. The maximal degradation (Dmax) is 50 to 75% at ER in MCF-7 cells (setting [1]) and above 75% on ER in T47D cells (setting [2]). The 50% degradation concentration (DC50) on ER in MCF-7 cells (16 hrs treatment) and at ER in T47D cells (16 hrs treatment) was below 1 nM throughout.
For the compound `COc1cc(N2CCC(CN3CCN4c5ccc6c(c5OC[C@@H]4C3)CN([C@@H]3CCC(=O)NC3=O)C6=O)CC2)ccc1[C@H]1c2ccc(O)cc2CC[C@H]1c1ccccc1` (stereo in doubt) [Compound A24, (R)-3-((S)-7-((1-(4-((1R,2R)-6-hydroxy-2-phenyl-1,2,3,4-tetrahydronaphthalen-1-yl)-3-methoxyphenyl)piperidin-4-yl)methyl)-1-oxo-1,3,5,5a,6,7,8,9-oCtahydro-2H-pyrazino [1′,2′:4,5][1,4]oxazino[2,3-e]isoindol-2-yl)piperidine-2,6-dione], the IC50 in the test with MCF-7 cells is 10 to 100 nM; on CRBN/DDB1 it was 50 to 500 nM; on ERα_LBD (GST), below 10 nM. The greatest degradation seen (Dmax) at ER in MCF-7 cells (setting [1]) and at ER in T47D cells (setting [2]) was above 75% each time. The DC50 at ER in MCF-7 cells (16 hrs treatment) and on ER in T47D cells (16 hrs treatment) was below 1 nM in each case.
As to `COc1cc(N2CCC(CN3CCN4c5cc6c(cc5OC[C@H]4C3)C(=O)N([C@@H]3CCC(=O)NC3=O)C6)CC2)ccc1[C@H]1c2ccc(O)cc2CC[C@H]1c1ccccc1` (stereo in doubt) [Compound A34, (R)-3-((R)-3-((1-(4-((1R,2R)-6-hydroxy-2-phenyl-1,2,3,4-tetrahydronaphthalen-1-yl)-3-methoxyphenyl)piperidin-4-yl)methyl)-8-oxo-1,2,3,4,4a,5,8,10-octahydro-9H-pyrazino[1′,2′: 4,5][1,4]oxazino[2,3-f]isoindol-9-yl)piperidine-2,6-dione], the IC50 in the test with MCF-7 cells and in the test on T47D cells was below 10 nM in each case. Besides, the maximal degradation (Dmax) at ER in MCF-7 cells (setting [3]) and on ER in T47D cells (setting [2]) was above 75% throughout. For the same compound, the 50% degradation concentration (DC50) at ER in MCF-7 cells (16 hrs treatment) and at ER in T47D cells (16 hrs treatment) was below 1 nM throughout.
Turning to `O=C1CC[C@H](N2Cc3cc4c(cc3C2=O)OC[C@@H]2CN(C[C@H]3COC5(C3)CN(c3ccc([C@@H]6c7ccc(O)cc7CC[C@@H]6c6ccccc6)cc3)C5)CCN42)C(=O)N1` [Compound A72, (S)-3-((S)-3-(((S)-2-(4-((1R, 2S)-6-hydroxy-2-phenyl-1,2,3,4-tetrahydronaphthalen-1-yl)phenyl)-5-oxa-2-azaspiro [3.4]octan-7-yl)methyl)-8-oxo-1,2,3,4,4a,5,8,10-octahydro-9H-pyrazino[1′,2′:4,5][1,4]oxazino[2,3-f]isoindol-9-yl)-piperidine-2,6-dione], the concentration for half-maximal inhibition (IC50) in the test on MCF-7 cells was below 10 nM; at CRBN/DDB1, 50 to 500 nM; on ERα_LBD (GST), below 10 nM. Besides, the values for the maximal degradation (Dmax) on ER in MCF-7 cells (setting [1]) and at ER in T47D cells (setting [2]) were 50 to 75% and above 75%, respectively. Also, the DC50 at ER in MCF-7 cells (16 hrs treatment) and at ER in T47D cells (16 hrs treatment) was below 1 nM each time.
